Experimental findings from patent publication US6413956B1, “Substituted 4-oxo-quinoline-3-carboxamides” (Neurogen Corporation, priority 1999, dated 2002) are described below.

Each structure is given as a SMILES string.

As a reminder, the melting point is the temperature, or range, at which the solid turns liquid. `CCOCCCNC(=O)c1c[nH]c2ccc(COC)cc2c1=O` [compound 33, N-[(3-Ethoxy)propyl] 6-methoxymethyl-4-oxo-1,4-dihydro-quinoline-3-carboxamide] had a melting point of 95 to 97 °C.
As for `COCc1ccc2[nH]cc(C(=O)NCc3cccc(CN4CCOCC4)c3)c(=O)c2c1` [compound 105, N-{3-[(4-Morpholinyl)methyl]benzyl} 6-methoxymethyl-4-oxo-1,4-dihydroquinoline-3-carboxamide], the figure is 151 to 153 °C; as for `CCOc1ccc(CNC(=O)c2c[nH]c3ccccc3c2=O)cc1` [compound 16, N-(4-Ethoxybenzyl) 4-oxo-1,4-dihydro-quinoline-3-carboxamide], 203 to 205 °C; as for `O=C(NCc1ccc2c(c1)OCO2)c1c[nH]c2ccccc2c1=O` [compound 11, N-Piperonyl 4-oxo-1,4-dihydro-quinoline-3-carboxamide], 207 °C.
In the case of `CC(C)CCNC(=O)c1c[nH]c2ccccc2c1=O` [compound 4, N-Isoamyl 4-oxo-1,4-dihydro-quinoline-3-carboxamide] it was 180 to 181 °C; in that of `CCOc1ccc2[nH]cc(C(=O)NCc3ccc(CN(C)C)cc3)c(=O)c2c1.Cl`, 222 to 225 °C (dec.); in that of `CCOc1ccc2[nH]cc(C(=O)NCc3cccc(F)c3)c(=O)c2c1` [compound 50, N-(3-Fluorobenzyl) 6-ethoxy-4-oxo-1,4-dihydro-quinoline-3-carboxamide], 210 to 212 °C.
As for `CCOc1ccc2[nH]cc(C(=O)NCc3ccc(Cn4ccnc4)cc3)c(=O)c2c1` [compound 66, N-[4-[(1-Imidazolyl)methyl]benzyl} 6-ethoxy-4-oxo-1,4-dihydro-quinoline-3-carboxamide], the figure is 161 to 165 °C; as for `CCOc1ccc2[nH]cc(C(=O)NCc3cccs3)c(=O)c2c1` [compound 41, N-[(2-Thienyl)methyl] 6-ethoxy-4-oxo-1,4-dihydro-quinoline-3-carboxamide], 223 to 224 °C; as for `CCOc1ccc2[nH]cc(C(=O)NC3CCCCC3)c(=O)c2c1` [compound 46, N-Cyclohexyl 6-ethoxy-4-oxo-1,4-dihydro-quinoline-3-carboxamide], 191 to 193 °C.
`CCOc1ccc2[nH]cc(C(=O)NCc3ccc(CN(C)Cc4ccccc4)cc3)c(=O)c2c1` [compound 98, N-{4-[(N-Benzyl-N-methylamino)methyl]benzyl} 6-ethoxy-4-oxo-1,4-dihydroquinoline-3-carboxamide]: the melting point lay in the range of 129 to 131 °C.
The molecule `Cl.O=C(NCc1cccc(CN2CCOCC2)c1)c1c[nH]c2ccccc2c1=O` displayed a melting point of 203 to 208 °C.
As for `CCOc1ccc2[nH]cc(C(=O)NC)c(=O)c2c1` [compound 58, N-Methyl 6-ethoxy-4-oxo-1,4-dihydro-quinoline-3-carboxamide], the figure is 279 to 281 °C; as for `CCOc1ccc2[nH]cc(C(=O)NCc3cccc(CN(C)Cc4ccccc4)c3)c(=O)c2c1` [compound 108, N-{3-[(N-Benzyl-N-methylamino)methyl]benzyl}-6-ethoxy-4-oxo-1,4-dihydroquinoline-3-carboxamide], 144 to 146 °C.
